Data published in patent US20110039873A1, “SUBSTITUTED PYRAZOLO[1,5-a] PYRIDINE COMPOUNDS HAVING MULTI-TARGET ACTIVITY” (priority 2009, published 2011).
Where two headings read alike, the source gives them in different places.

Key:
[1] = molecular target: T1, recombinant full length human JNK3 enzyme (Homo sapiens, UniProt P53779); experiment: JNK 3 inhibition assay (ATP depletion, luciferase); type: biochemical; conditions: for IC50: 10 uM ATP, ATF2 substrate
T1 construct: recombinant full length human JNK2 or JNK3 enzyme; purchased Upstate; host or cells: Sf21 cells
Description: In a 96-well plate, recombinant full length human JNK2 or JNK3 enzyme (40 ng) expressed in Sf21 cells (Upstate) was incubated with the substrate ATF2 (3 uM) for 1 hour in the presence of 10 uM ATP. […] The ATP levels were quantified using luciferase with luminescence read on a Victor Light 1420 luminometer. IC50 calculations were plotted using a nonlinear regression curve fit.

[2] = molecular target: T2, recombinant human phosphodiesterase 10A1 enzyme (Homo sapiens, UniProt Q9Y233); experiment: PDE10 inhibition assay (PDELight); type: biochemical; conditions: for IC50: 1 uM cAMP, read-out: PDE 10 Inhibition (IC50 in μM); for PDE-10 inhibition (in words): Table 2
T2 construct: purchased BPS Biosciences; host or cells: Baculovirus infected Sf9 cells
Description: In a 96-well plate, recombinant human phosphodiesterase 10A1 enzyme (10 U/well) expressed in Baculovirus infected Sf9 cells (BPS Biosciences) was combined with 1 uM cAMP substrate (Sigma). […] Using a PDELight® kit (Cambrex), the amount of AMP produced in the reaction from the hydrolysis of cAMP was quantified using PDELight AMP Detection Reagent which converts the AMP directly to ATP. The assay uses luciferase, which catalyses the formation of light from the newly formed ATP and luciferin. The luminescence was read on a Victor Light 1420 luminometer. IC50 calculations were plotted using a nonlinear regression curve fit.

[3] = molecular target: T3, catalytic domain of phosphodiesterase 4B enzyme cloned from human brain (Homo sapiens, UniProt Q07343); experiment: PDE4 inhibition assay (PDELight); type: biochemical; conditions: for IC50: 5 uM cAMP, read-out: PDE 4 Inhibition (IC50 in μM)
T3 construct: the catalytic domain of phosphodiesterase 4B enzyme; purchased Scottish Biomedical
Description: In a 96-well plate, the catalytic domain of phosphodiesterase 4B enzyme (40 mU/well) cloned from human brain (Scottish Biomedical) was combined with 5 uM cAMP substrate (Sigma). […] Using a PDELight® kit (Cambrex), the amount of AMP produced in the reaction from the hydrolysis of cAMP was quantified using PDELight AMP Detection Reagent which converts the AMP directly to ATP. The assay uses luciferase, which catalyses the formation of light from the newly formed ATP and luciferin. […] IC50 calculations were plotted using a nonlinear regression curve fit.

[4] = tested on: rat chronic constriction injury (CCI) model of neuropathic pain; experiment: Rat chronic constriction injury (CCI) model of neuropathic pain; type: in vivo; conditions: IP, dose not given; 50% paw withdrawal threshold, von Frey
Description: To induce allodynia, male Sprague-Dawley rats underwent chronic constriction injury (CCI) to the sciatic nerve as described by Bennett and Xie, Pain 1988; 33(1):87-107. The plantar surface of the hind paws was stimulated with von Frey filaments (Stoelting) to induce a withdrawal response by blinded personnel. The bending force of fiber required to induce a 50% withdrawal response was calculated following CCI surgery (pre-dosing baseline). N=5-6 allodynic rats received a single IP or oral administration of test compounds or vehicle. Two hours post-dosing, 50% paw withdrawal threshold was determined again by blinded testers using von Frey filaments. The 50% withdrawal threshold prior to CCI surgery, pre-dosing (10 days post-surgery), and 2 hours post-dosing are plotted.
For selected compounds multi-day studies were perfumed with pre-determined schedules for dosing and withdrawal threshold assessments.

[5] = molecular target: T4, recombinant full length human JNK2 enzyme (Homo sapiens, UniProt P45984); experiment: JNK 2 inhibition assay (ATP depletion, luciferase); type: biochemical; conditions: 10 uM ATP, ATF2 substrate; read-out: JNK 2 Inhibition (IC50 in μM)
T4 construct: recombinant full length human JNK2 or JNK3 enzyme; purchased Upstate; host or cells: Sf21 cells
Description: In a 96-well plate, recombinant full length human JNK2 or JNK3 enzyme (40 ng) expressed in Sf21 cells (Upstate) was incubated with the substrate ATF2 (3 uM) for 1 hour in the presence of 10 uM ATP. […] IC50 calculations were plotted using a nonlinear regression curve fit.

[6] = tested on: Mouse BV-2 microglial cells; experiment: BV-2 glial cell assay (TNF-α and MCP-1 by Luminex); type: cell-based; conditions: Mus musculus, BV-2, LPS and IFN-γ activated, 20 hours
Description: Mouse BV-2 microglial cells were seeded on 96-well plates at a concentration of 3×10^4 cells/well. Cells were activated with 100 ng/mL LPS and IFN-γ (100 ng/mL) in the presence or absence of test compounds (0-30 uM). Following incubation for 20 hours, cells were spun down and supernatant collected. The supernatant was analyzed via Luminex for the presence of TNF-α and MCP-1.

T1 sequence (P53779 whole entry): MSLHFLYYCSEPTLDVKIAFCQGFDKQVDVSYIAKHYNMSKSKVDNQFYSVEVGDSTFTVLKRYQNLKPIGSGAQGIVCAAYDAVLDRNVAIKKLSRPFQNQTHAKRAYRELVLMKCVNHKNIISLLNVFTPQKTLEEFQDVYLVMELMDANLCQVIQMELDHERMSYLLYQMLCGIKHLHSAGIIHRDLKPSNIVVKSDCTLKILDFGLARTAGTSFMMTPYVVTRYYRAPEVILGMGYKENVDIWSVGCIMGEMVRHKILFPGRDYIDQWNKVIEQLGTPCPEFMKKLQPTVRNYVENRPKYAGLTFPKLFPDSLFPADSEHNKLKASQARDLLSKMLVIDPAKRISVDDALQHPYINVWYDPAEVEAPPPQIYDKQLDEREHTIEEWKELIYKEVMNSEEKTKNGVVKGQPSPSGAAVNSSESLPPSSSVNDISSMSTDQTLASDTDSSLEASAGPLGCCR
T2 sequence (Q9Y233 1-779 isoform Q9Y233-1): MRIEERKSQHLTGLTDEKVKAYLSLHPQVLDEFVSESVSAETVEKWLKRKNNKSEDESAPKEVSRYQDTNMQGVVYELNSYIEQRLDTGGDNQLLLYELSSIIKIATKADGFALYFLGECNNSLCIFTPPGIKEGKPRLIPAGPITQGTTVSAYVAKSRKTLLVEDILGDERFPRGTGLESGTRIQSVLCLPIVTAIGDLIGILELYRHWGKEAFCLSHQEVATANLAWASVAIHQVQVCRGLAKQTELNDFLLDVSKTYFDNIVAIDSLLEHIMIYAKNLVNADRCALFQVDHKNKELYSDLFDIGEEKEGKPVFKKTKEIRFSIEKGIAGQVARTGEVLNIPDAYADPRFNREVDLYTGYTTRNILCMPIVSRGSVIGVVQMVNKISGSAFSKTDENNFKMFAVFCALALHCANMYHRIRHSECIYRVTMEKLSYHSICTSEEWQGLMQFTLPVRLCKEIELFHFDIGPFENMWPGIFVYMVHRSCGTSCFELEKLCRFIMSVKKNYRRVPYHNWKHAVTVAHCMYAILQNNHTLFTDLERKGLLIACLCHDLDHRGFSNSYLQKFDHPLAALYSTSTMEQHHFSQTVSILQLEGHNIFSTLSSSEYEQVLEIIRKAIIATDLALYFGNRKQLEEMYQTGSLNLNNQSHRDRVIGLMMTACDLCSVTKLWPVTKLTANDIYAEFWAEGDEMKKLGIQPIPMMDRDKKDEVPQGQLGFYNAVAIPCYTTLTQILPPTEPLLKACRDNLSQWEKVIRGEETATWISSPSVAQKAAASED
T3 sequence (Q07343 330-659 limits assumed): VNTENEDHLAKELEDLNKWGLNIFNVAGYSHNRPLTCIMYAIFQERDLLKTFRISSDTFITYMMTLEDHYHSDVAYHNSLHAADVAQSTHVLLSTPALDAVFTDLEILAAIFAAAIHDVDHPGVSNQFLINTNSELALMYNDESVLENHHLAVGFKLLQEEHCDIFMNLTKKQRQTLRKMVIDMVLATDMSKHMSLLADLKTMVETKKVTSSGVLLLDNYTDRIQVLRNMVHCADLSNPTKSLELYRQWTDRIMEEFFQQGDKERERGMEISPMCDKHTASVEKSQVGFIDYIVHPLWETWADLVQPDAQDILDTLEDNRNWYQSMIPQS
T4 sequence (P45984 whole entry): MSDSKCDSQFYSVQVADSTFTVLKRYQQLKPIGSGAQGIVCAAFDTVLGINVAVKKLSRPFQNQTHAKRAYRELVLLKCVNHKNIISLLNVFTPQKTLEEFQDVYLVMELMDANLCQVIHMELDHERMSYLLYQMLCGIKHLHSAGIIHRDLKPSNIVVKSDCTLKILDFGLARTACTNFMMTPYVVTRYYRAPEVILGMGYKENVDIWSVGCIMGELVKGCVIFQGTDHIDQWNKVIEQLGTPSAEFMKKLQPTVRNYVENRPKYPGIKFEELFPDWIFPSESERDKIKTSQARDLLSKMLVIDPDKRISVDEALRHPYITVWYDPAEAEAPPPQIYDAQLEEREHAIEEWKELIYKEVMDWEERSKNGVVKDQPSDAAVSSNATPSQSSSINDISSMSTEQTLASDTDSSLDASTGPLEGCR

IC50 [1] | IC50 [2] | IC50 [3] | Compound | other results
> 100 µM | > 100 µM | 22 µM | CC(C)c1nn2ccccc2c1-c1ccnc(N)c1 [AV105, 4-(-2-isopropylpyrazolo[1,5-a]pyridin-3-yl)pyridin-2-amine] | –
27 µM | 42 µM | 5.9 µM | CCC(CC)Nc1nccc(-c2c(C(C)C)nn3ccccc23)n1 [AV1155, 4-(2-isopropylpyrazolo[1,5-a]pyridin-3-yl)-N-(pentan-3-yl)pyrimidin-2-amine] | PDE-4 inhibition (in words) [3]: particularly effective; IP CCI efficacy (Change in grams) [4]: 0.67 grams
68 µM | 8.3 µM | 20.8 µM | CC(C)c1nn2ccccc2c1-c1ccc(N)nc1 [AV1196, 5-(2-isopropylpyrazolo[1,5-a]pyridin-3-yl)pyridin-2-amine] | PDE-10 inhibition (in words) [2]: particularly effective; PDE-4 inhibition (in words) [3]: particularly effective
> 100 µM | 17 µM | 50.5 µM | CC(C)Nc1ccc(-c2c(C(C)C)nn3ccccc23)cn1 [AV1197, N-isopropyl-5-(2-isopropylpyrazolo[1,5-a]pyridin-3-yl)pyridin-2-amine] | –
> 100 µM | 7.1 µM | 43 µM | CC(C)c1nn2ccccc2c1-c1ccc(NC2CCCC2)nc1 [AV1199, N-cyclopentyl-5-(2-isopropylpyrazolo[1,5-a]pyridin-3-yl)pyridin-2-amine] | PDE-10 inhibition (in words) [2]: particularly effective
> 100 µM | 13 µM | > 100 µM | CC(C)Nc1cc(-c2c(C(C)C)nn3ccccc23)ccn1 [AV1202, N-isopropyl-4-(-2-isopropylpyrazolo[1,5-a]pyridin-3-yl)pyridin-2-amine] | –
> 10 µM | 3.8 µM | 9.9 µM | CC(C)c1nn2ccccc2c1-c1cnc(N)nc1 [AV1203, 5-(-2-isopropylpyrazolo[1,5-a]pyridin-3-yl)pyrimidin-2-amine] | IC50 [5]: > 100 µM; EC50 ([6]; read-out: MCP-1 BV-2 (EC50 in μM)): 0.3 µM; EC50 ([6]; read-out: TNF-a BV-2 (EC50 in μM)): 0.8 µM
> 100 µM | 7.4 µM | 43 µM | CC(C)Nc1ncc(-c2c(C(C)C)nn3ccccc23)cn1 [AV1206, N-isopropyl-5-(-2-isopropylpyrazolo[1,5-a]pyridin-3-yl)pyrimidin-2-amine] | –
> 100 µM | 5.4 µM | 3.9 µM | CC(C)c1nn2ccccc2c1-c1ccnc(N(C)C)c1 [AV1208, 4-(-2-isopropylpyrazolo[1,5-a]pyridin-3-yl)-N,N-dimethylpyridin-2-amine] | –

The remaining lines, values behind:

Compound | IC50 [1] | IC50 [2] | IC50 [3] | other results
CC(C)c1nn2ccccc2c1-c1ccnc(NC2CCCC2)c1 [AV1021, N-cyclopentyl-4-(-2-isopropylpyrazolo[1,5-a]pyridin-3-yl)pyridin-2-amine] | > 100 µM | 12 µM | > 100 µM | –
CC(C)c1nn2ccccc2c1-c1ccnc(NCCCN2CCN(C)CC2)n1 [AV1135, 4-(2-isopropylpyrazolo[1,5-a]pyridin-3-yl)-N-(3-(4-methylpiperazin-1-yl)propyl)pyrimidin-2-amine] | 83 µM | 19 µM | > 100 µM | IP CCI efficacy (Change in grams) [4]: 0 grams
CC(C)c1nn2ccccc2c1-c1ccnc(N)n1 [AV1139, 4-(2-isopropylpyrazolo[1,5-a]pyridin-3-yl)pyrimidin-2-amine] | 18 µM | > 100 µM | > 100 µM | IP CCI efficacy (Change in grams) [4]: 0.21 grams
CC(C)Nc1nccc(-c2c(C(C)(C)C)nn3ccccc23)n1 [AV1157, 4-(2-tert-butylpyrazolo[1,5-a]pyridin-3-yl)-N-isopropylpyrimidin-2-amine] | > 100 µM | > 100 µM | > 100 µM | –
CC(C)c1nn2ccccc2c1-c1ccnc(NC2CCNC2)n1 (centres unmarked) [AV1159, 4-(2-isopropylpyrazolo[1,5-a]pyridin-3-yl)-N-(pyrrolidin-3-yl)pyrimidin-2-amine] | – | – | – | IP CCI efficacy (Change in grams) [4]: 0 grams
CC(C)Nc1nccc(-c2c(-c3cccc(F)c3)nn3ccccc23)n1 [AV1179, 4-(2-(3-fluorophenyl)pyrazolo[1,5-a]pyridin-3-yl)-N-isopropylpyrimidin-2-amine] | 0.2 µM | > 100 µM | > 100 µM | JNK-3 inhibition (in words) ([1]; see Table 2): particularly effective
CC(C)Nc1nccc(-c2cccc3cc(C(C)C)nn23)n1 [AV1185, N-isopropyl-4-(2-isopropylpyrazolo[1,5-a]pyridin-7-yl)pyrimidin-2-amine] | > 100 µM | > 100 µM | 57 µM | –
CC(C)c1cc2cccc(-c3ccnc(NC4CCCC4)n3)n2n1 [AV1186, N-cyclopentyl-4-(2-isopropylpyrazolo[1,5-a]pyridin-7-yl)pyrimidin-2-amine] | > 100 µM | > 100 µM | – | –
CC(C)Nc1nccc(-c2cccc3ccnn23)n1 [AV1187, N-isopropyl-4-(pyrazolo[1,5-a]pyridin-7-yl)pyrimidin-2-amine] | > 100 µM | > 100 µM | – | –
c1cc(-c2ccnc(NC3CCCC3)n2)n2nccc2c1 [AV1188, N-cyclopentyl-4-(pyrazolo[1,5-a]pyridin-7-yl)pyrimidin-2-amine] | > 100 µM | > 100 µM | – | –
CC(C)c1nn2ccccc2c1-c1ccnc(NS(C)(=O)=O)n1 [AV1189] | > 100 µM | > 100 µM | – | –
CC(C)c1nn2ccccc2c1-c1ccnc(NS(=O)(=O)c2ccccc2)n1 [AV1190] | > 100 µM | – | 40 µM | –
Cc1nn2ccccc2c1-c1ccnc(NS(=O)(=O)c2ccsc2)n1 [AV1191] | > 100 µM | > 100 µM | 6.8 µM | –
O=S(=O)(Nc1nccc(-c2cnn3ccccc23)n1)c1ccccc1 [AV1193] | 53 µM | > 100 µM | 9.4 µM | –
CC(C)c1nn2ccccc2c1-c1cnc(NC2CCCC2)nc1 [AV1207, N-cyclopentyl-5-(-2-isopropylpyrazolo[1,5-a]pyridin-3-yl)pyrimidin-2-amine] | > 100 µM | 3.2 µM | 24 µM | –
COc1ccc(Cc2nccc3cc(OC)c(OC)cc23)cc1OC [Papaverine, reference compound] | – | – | – | IP CCI efficacy (Change in grams) [4]: 1.35 grams
